Assay results as given in the kinase profiling compilation of Christmann-Franck et al. (2016).

Columns and labels:
Test in all cases: KINOMEscan competition binding
Conditions in all cases: compound 10.0 µM
TAOK3 (human) = TAOK3 (human) (UniProt Q9H2K8)
MAPK6 (human) = MAPK6 (human) (UniProt Q16659)
CDC42BPB (human) = CDC42BPB (human) (UniProt Q9Y5S2)
EPHA3 (human) = EPHA3 (human) (UniProt P29320)
PTK2 (human) = PTK2 (human) (UniProt Q05397)
CLK3 (human) = CLK3 (human) (UniProt P49761)
MAP4K1 (human) = MAP4K1 (human) (UniProt Q92918)
RPS6KA1 KD1 (human) = RPS6KA1 KD1 (human) (UniProt Q15418)
SNRK (human) = SNRK (human) (UniProt Q9NRH2)
GRK1 (human) = GRK1 (human) (UniProt Q15835)
ROCK1 (human) = ROCK1 (human) (UniProt Q13464)
VRK2 (human) = VRK2 (human) (UniProt Q86Y07)
CDC42BPA (human) = CDC42BPA (human) (UniProt Q5VT25)
MATK (human) = MATK (human) (UniProt P42679)
CRK2 (P.falciparum) = CRK2 (P.falciparum) (UniProt P61075)
MAP3K9 (human) = MAP3K9 (human) (UniProt P80192)
FGR (human) = FGR (human) (UniProt P09769)
MLTK (human) = MLTK (human) (UniProt Q9NYL2)
TSSK1B (human) = TSSK1B (human) (UniProt Q9BXA7)
CAMKK1 (human) = CAMKK1 (human) (UniProt Q8N5S9)
MAP3K6 (human) = MAP3K6 (human) (UniProt O95382)
INSR (human) = INSR (human) (UniProt P06213)
CLK1 (human) = CLK1 (human) (UniProt P49759)
PKN3 (M.tuberculosis) = PKN3 (M.tuberculosis) (UniProt Q6P5Z2)
[1] = test system: RET (human), P07949 [M918T]
PKN1 (human) = PKN1 (human) (UniProt Q16512)
CSNK1G1 (human) = CSNK1G1 (human) (UniProt Q9HCP0)
CSNK1A1 (human) = CSNK1A1 (human) (UniProt P48729)
MKNK1 (human) = MKNK1 (human) (UniProt Q9BUB5)
CAMK2A (human) = CAMK2A (human) (UniProt Q9UQM7)
CSNK1E (human) = CSNK1E (human) (UniProt P49674)
WEE1 (human) = WEE1 (human) (UniProt P30291)
MKNK2 (human) = MKNK2 (human) (UniProt Q9HBH9)
MAP3K13 (human) = MAP3K13 (human) (UniProt O43283)
MYO3A (human) = MYO3A (human) (UniProt Q8NEV4)
BRSK2 (human) = BRSK2 (human) (UniProt Q8IWQ3)
IRAK3 (human) = IRAK3 (human) (UniProt Q9Y616)
FGFR3 (human) = FGFR3 (human) (UniProt P22607)
MAPK14 (human) = MAPK14 (human) (UniProt Q16539)
GRK4 (human) = GRK4 (human) (UniProt P32298)

Chain of MKNK1 (human) (Q9BUB5 whole entry, looked up): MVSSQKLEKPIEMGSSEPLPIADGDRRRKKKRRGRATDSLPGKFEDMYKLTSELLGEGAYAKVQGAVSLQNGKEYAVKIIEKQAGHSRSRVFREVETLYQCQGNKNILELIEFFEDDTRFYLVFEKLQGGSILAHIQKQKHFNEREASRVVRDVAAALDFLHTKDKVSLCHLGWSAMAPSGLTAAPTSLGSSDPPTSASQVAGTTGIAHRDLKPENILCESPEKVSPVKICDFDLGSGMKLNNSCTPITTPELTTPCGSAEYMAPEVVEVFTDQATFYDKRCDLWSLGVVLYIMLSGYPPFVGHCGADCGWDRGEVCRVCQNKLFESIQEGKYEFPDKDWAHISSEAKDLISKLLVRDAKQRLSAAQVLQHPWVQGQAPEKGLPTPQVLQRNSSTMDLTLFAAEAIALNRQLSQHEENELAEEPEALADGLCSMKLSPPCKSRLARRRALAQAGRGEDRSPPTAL
Chain of MATK (human) (P42679 whole entry, looked up): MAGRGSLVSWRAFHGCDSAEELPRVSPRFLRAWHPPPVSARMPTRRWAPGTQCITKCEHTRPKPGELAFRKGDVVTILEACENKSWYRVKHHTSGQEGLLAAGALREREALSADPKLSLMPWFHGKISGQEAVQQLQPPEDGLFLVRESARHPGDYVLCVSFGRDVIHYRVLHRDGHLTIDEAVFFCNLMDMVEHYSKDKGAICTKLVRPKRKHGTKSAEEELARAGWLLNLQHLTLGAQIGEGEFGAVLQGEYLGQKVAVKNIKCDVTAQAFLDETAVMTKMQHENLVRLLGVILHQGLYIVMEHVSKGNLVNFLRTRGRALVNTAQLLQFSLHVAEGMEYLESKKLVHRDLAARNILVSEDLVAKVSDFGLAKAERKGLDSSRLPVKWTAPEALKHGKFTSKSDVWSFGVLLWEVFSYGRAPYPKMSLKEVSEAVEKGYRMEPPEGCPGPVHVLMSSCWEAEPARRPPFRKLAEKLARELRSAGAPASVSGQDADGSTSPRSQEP
Chain of CDC42BPB (human) (Q9Y5S2 whole entry, looked up): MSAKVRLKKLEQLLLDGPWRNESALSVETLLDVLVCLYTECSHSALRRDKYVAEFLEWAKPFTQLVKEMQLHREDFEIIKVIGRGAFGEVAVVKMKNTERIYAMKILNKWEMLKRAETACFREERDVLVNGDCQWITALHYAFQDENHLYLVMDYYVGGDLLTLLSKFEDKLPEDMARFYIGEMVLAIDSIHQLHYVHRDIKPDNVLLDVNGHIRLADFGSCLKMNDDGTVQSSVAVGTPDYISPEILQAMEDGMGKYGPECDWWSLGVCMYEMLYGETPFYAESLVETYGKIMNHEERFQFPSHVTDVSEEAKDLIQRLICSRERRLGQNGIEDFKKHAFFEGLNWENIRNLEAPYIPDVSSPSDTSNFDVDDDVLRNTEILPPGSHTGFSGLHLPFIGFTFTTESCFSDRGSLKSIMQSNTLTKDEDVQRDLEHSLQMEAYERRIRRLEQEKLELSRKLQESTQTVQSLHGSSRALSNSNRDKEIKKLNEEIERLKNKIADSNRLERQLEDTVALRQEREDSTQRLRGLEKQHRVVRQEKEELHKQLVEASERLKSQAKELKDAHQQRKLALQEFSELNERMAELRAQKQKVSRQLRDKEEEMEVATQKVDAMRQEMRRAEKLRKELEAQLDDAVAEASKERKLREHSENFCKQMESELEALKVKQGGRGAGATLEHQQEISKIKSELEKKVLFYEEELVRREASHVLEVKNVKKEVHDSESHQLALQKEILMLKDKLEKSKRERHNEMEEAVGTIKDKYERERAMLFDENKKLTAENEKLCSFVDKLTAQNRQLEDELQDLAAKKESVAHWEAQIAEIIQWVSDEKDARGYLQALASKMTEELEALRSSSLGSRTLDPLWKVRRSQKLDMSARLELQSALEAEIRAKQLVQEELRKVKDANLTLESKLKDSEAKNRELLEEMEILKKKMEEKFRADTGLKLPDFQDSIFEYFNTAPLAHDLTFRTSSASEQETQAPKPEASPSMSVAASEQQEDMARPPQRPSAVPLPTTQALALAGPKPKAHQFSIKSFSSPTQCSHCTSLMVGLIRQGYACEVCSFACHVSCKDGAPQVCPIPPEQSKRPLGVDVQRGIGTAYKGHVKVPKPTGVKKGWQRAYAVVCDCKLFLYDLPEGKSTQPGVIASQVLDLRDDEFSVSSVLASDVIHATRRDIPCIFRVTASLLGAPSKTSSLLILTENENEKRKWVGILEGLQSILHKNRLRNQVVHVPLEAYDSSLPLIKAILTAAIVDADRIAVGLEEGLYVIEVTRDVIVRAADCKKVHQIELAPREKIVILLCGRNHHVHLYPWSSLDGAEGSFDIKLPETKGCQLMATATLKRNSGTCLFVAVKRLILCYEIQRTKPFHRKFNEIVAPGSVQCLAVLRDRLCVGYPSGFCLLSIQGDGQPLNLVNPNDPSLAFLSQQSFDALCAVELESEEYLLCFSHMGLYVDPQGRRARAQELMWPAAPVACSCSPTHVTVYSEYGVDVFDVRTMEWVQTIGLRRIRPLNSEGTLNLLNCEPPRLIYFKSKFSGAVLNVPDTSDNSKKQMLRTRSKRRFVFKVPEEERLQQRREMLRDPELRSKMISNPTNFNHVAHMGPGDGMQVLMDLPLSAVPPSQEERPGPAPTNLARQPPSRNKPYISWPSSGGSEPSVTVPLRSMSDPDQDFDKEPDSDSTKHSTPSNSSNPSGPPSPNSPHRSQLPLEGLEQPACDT
Chain of INSR (human) (P06213 whole entry, looked up): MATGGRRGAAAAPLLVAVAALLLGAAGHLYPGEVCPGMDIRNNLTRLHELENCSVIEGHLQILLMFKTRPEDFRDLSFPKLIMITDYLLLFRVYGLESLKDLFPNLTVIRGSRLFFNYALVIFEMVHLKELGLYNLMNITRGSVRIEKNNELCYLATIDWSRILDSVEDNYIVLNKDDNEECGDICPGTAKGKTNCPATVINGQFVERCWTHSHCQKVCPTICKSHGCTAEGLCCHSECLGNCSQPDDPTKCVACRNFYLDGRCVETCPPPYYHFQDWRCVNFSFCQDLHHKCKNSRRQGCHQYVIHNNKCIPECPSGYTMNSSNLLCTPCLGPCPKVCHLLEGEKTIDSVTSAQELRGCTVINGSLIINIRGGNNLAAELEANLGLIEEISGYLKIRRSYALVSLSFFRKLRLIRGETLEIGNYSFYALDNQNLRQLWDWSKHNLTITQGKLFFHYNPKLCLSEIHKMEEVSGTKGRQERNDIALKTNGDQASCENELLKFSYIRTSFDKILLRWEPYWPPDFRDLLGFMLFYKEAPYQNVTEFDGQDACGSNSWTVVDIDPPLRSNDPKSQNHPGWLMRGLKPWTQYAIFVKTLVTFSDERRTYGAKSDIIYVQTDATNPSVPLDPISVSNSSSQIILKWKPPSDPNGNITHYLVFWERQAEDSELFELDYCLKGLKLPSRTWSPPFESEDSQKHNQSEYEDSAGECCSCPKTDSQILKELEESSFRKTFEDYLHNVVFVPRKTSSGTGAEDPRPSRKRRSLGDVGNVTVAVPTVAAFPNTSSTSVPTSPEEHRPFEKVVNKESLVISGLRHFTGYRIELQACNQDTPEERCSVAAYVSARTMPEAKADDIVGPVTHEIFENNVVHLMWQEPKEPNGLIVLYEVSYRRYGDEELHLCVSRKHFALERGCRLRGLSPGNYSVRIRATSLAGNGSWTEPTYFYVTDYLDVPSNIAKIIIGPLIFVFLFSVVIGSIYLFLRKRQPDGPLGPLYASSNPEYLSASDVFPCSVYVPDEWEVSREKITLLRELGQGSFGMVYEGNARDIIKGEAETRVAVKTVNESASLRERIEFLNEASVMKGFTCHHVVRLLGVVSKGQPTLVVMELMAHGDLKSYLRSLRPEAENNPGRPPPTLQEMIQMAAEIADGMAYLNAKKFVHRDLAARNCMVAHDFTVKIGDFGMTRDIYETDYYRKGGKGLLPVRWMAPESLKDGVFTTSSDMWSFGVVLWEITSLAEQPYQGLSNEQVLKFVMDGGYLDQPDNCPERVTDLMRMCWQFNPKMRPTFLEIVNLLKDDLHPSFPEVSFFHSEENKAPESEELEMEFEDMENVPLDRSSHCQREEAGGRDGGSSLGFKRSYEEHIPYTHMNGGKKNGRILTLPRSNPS
Chain of CLK1 (human) (P49759 whole entry, looked up): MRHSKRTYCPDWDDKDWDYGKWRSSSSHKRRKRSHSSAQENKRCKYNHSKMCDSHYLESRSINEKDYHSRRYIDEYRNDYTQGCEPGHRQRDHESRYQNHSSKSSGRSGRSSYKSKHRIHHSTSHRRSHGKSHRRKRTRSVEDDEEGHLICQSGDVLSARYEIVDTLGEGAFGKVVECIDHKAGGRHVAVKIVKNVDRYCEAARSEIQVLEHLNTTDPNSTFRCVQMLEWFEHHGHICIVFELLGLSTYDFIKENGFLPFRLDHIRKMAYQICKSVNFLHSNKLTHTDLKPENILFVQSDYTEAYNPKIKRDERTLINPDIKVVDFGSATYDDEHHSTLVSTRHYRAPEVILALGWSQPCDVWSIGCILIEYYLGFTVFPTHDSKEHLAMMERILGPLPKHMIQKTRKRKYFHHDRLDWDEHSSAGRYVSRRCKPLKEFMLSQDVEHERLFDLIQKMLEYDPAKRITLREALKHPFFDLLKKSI
Chain of CLK3 (human) (P49761 whole entry, looked up): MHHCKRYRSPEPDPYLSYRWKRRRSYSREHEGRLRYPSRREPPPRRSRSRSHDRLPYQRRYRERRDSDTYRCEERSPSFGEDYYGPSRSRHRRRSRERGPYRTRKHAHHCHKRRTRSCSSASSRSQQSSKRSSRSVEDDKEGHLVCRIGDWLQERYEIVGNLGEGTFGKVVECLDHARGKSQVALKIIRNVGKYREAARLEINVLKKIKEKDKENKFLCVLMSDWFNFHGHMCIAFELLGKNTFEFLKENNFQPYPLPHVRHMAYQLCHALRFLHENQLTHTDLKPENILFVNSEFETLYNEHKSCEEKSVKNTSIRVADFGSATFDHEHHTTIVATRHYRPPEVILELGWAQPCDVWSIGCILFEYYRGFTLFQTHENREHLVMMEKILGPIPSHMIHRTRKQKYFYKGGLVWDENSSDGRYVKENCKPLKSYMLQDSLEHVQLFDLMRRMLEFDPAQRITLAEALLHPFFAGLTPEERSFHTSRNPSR

SMILES: O=C1NC(=O)/C(=C/c2ccc3nccc(-c4ccncc4)c3c2)S1
- kinase still bound, per cent of control (TAOK3 (human)): 13%
- kinase still bound, per cent of control (MAPK6 (human)): 100%
- kinase still bound, per cent of control (CDC42BPB (human)): 66%
- kinase still bound, per cent of control (EPHA3 (human)): 75%
- kinase still bound, per cent of control (PTK2 (human)): 100%
- kinase still bound, per cent of control (CLK3 (human)): 0.05%
- kinase still bound, per cent of control (MAP4K1 (human)): 26%
- kinase still bound, per cent of control (RPS6KA1 KD1 (human)): 51%
- kinase still bound, per cent of control (SNRK (human)): 100%
- kinase still bound, per cent of control (GRK1 (human)): 22%
- kinase still bound, per cent of control (ROCK1 (human)): 51%
- kinase still bound, per cent of control (VRK2 (human)): 81%
- kinase still bound, per cent of control (CDC42BPA (human)): 90%
- kinase still bound, per cent of control (MATK (human)): 50%
- kinase still bound, per cent of control (CRK2 (P.falciparum)): 93%
- kinase still bound, per cent of control (MAP3K9 (human)): 76%
- kinase still bound, per cent of control (FGR (human)): 69%
- kinase still bound, per cent of control (MLTK (human)): 16%
- kinase still bound, per cent of control (TSSK1B (human)): 2.2%
- kinase still bound, per cent of control (CAMKK1 (human)): 12%
- kinase still bound, per cent of control (MAP3K6 (human)): 96%
- kinase still bound, per cent of control (INSR (human)): 77%
- kinase still bound, per cent of control (CLK1 (human)): 0%
- kinase still bound, per cent of control (PKN3 (M.tuberculosis)): 36%
- kinase still bound, per cent of control [1]: 93%
- kinase still bound, per cent of control (PKN1 (human)): 56%
- kinase still bound, per cent of control (CSNK1G1 (human)): 20%
- kinase still bound, per cent of control (CSNK1A1 (human)): 24%
- kinase still bound, per cent of control (MKNK1 (human)): 84%
- kinase still bound, per cent of control (CAMK2A (human)): 4.8%
- kinase still bound, per cent of control (CSNK1E (human)): 2.6%
- kinase still bound, per cent of control (WEE1 (human)): 100%
- kinase still bound, per cent of control (MKNK2 (human)): 49%
- kinase still bound, per cent of control (MAP3K13 (human)): 82%
- kinase still bound, per cent of control (MYO3A (human)): 85%
- kinase still bound, per cent of control (BRSK2 (human)): 91%
- kinase still bound, per cent of control (IRAK3 (human)): 14%
- kinase still bound, per cent of control (FGFR3 (human)): 100%
- kinase still bound, per cent of control (MAPK14 (human)): 100%
- kinase still bound, per cent of control (GRK4 (human)): 47%

SMILES: COc1cc2ncnc(-n3nc(-c4ccccn4)nc3N)c2cc1OC
- kinase still bound, per cent of control (TAOK3 (human)): 39%
- kinase still bound, per cent of control (MAPK6 (human)): 85%
- kinase still bound, per cent of control (CDC42BPB (human)): 100%
- kinase still bound, per cent of control (EPHA3 (human)): 11%
- kinase still bound, per cent of control (PTK2 (human)): 80%
- kinase still bound, per cent of control (CLK3 (human)): 3.6%
- kinase still bound, per cent of control (MAP4K1 (human)): 56%
- kinase still bound, per cent of control (RPS6KA1 KD1 (human)): 33%
- kinase still bound, per cent of control (SNRK (human)): 47%
- kinase still bound, per cent of control (GRK1 (human)): 41%
- kinase still bound, per cent of control (ROCK1 (human)): 21%
- kinase still bound, per cent of control (VRK2 (human)): 9.8%
- kinase still bound, per cent of control (CDC42BPA (human)): 99%
- kinase still bound, per cent of control (MATK (human)): 57%
- kinase still bound, per cent of control (CRK2 (P.falciparum)): 94%
- kinase still bound, per cent of control (MAP3K9 (human)): 70%
- kinase still bound, per cent of control (FGR (human)): 36%
- kinase still bound, per cent of control (MLTK (human)): 4.5%
- kinase still bound, per cent of control (TSSK1B (human)): 60%
- kinase still bound, per cent of control (CAMKK1 (human)): 17%
- kinase still bound, per cent of control (MAP3K6 (human)): 64%
- kinase still bound, per cent of control (INSR (human)): 91%
- kinase still bound, per cent of control (CLK1 (human)): 0.6%
- kinase still bound, per cent of control (PKN3 (M.tuberculosis)): 7.1%
- kinase still bound, per cent of control [1]: 14%
- kinase still bound, per cent of control (PKN1 (human)): 100%
- kinase still bound, per cent of control (CSNK1G1 (human)): 33%
- kinase still bound, per cent of control (CSNK1A1 (human)): 1.4%
- kinase still bound, per cent of control (MKNK1 (human)): 51%
- kinase still bound, per cent of control (CAMK2A (human)): 44%
- kinase still bound, per cent of control (CSNK1E (human)): 1.6%
- kinase still bound, per cent of control (WEE1 (human)): 80%
- kinase still bound, per cent of control (MKNK2 (human)): 8.4%
- kinase still bound, per cent of control (MAP3K13 (human)): 96%
- kinase still bound, per cent of control (MYO3A (human)): 72%
- kinase still bound, per cent of control (BRSK2 (human)): 14%
- kinase still bound, per cent of control (IRAK3 (human)): 12%
- kinase still bound, per cent of control (FGFR3 (human)): 84%
- kinase still bound, per cent of control (MAPK14 (human)): 50%
- kinase still bound, per cent of control (GRK4 (human)): 39%

SMILES: COc1cc(C(=O)N2CCC(N3CCN(C)CC3)CC2)ccc1Nc1ncc2c(n1)N(C)c1ccccc1C(=O)N2C
- kinase still bound, per cent of control (TAOK3 (human)): 24%
- kinase still bound, per cent of control (MAPK6 (human)): 100%
- kinase still bound, per cent of control (CDC42BPB (human)): 100%
- kinase still bound, per cent of control (EPHA3 (human)): 100%
- kinase still bound, per cent of control (PTK2 (human)): 34%
- kinase still bound, per cent of control (CLK3 (human)): 95%
- kinase still bound, per cent of control (MAP4K1 (human)): 100%
- kinase still bound, per cent of control (RPS6KA1 KD1 (human)): 73%
- kinase still bound, per cent of control (SNRK (human)): 94%
- kinase still bound, per cent of control (GRK1 (human)): 91%
- kinase still bound, per cent of control (ROCK1 (human)): 100%
- kinase still bound, per cent of control (VRK2 (human)): 99%
- kinase still bound, per cent of control (CDC42BPA (human)): 100%
- kinase still bound, per cent of control (MATK (human)): 100%
- kinase still bound, per cent of control (CRK2 (P.falciparum)): 100%
- kinase still bound, per cent of control (MAP3K9 (human)): 93%
- kinase still bound, per cent of control (FGR (human)): 84%
- kinase still bound, per cent of control (MLTK (human)): 99%
- kinase still bound, per cent of control (TSSK1B (human)): 60%
- kinase still bound, per cent of control (CAMKK1 (human)): 73%
- kinase still bound, per cent of control (MAP3K6 (human)): 100%
- kinase still bound, per cent of control (INSR (human)): 84%
- kinase still bound, per cent of control (CLK1 (human)): 28%
- kinase still bound, per cent of control (PKN3 (M.tuberculosis)): 100%
- kinase still bound, per cent of control [1]: 100%
- kinase still bound, per cent of control (PKN1 (human)): 100%
- kinase still bound, per cent of control (CSNK1G1 (human)): 100%
- kinase still bound, per cent of control (CSNK1A1 (human)): 100%
- kinase still bound, per cent of control (MKNK1 (human)): 50%
- kinase still bound, per cent of control (CAMK2A (human)): 21%
- kinase still bound, per cent of control (CSNK1E (human)): 95%
- kinase still bound, per cent of control (WEE1 (human)): 100%
- kinase still bound, per cent of control (MKNK2 (human)): 1.2%
- kinase still bound, per cent of control (MAP3K13 (human)): 100%
- kinase still bound, per cent of control (MYO3A (human)): 94%
- kinase still bound, per cent of control (BRSK2 (human)): 64%
- kinase still bound, per cent of control (IRAK3 (human)): 100%
- kinase still bound, per cent of control (FGFR3 (human)): 80%
- kinase still bound, per cent of control (MAPK14 (human)): 87%
- kinase still bound, per cent of control (GRK4 (human)): 86%
